ChEMBL document CHEMBL1926525 (Bioorg Med Chem Lett, 2011)

Legend:
[1] = biological target: Dihydroorotate dehydrogenase (quinone), mitochondrial (Homo sapiens, UniProt Q02127); assay: Inhibition of human dihydroorotate dehydrogenase
[2] = Half life in rat at 1 mg/kg, iv; assay type: ADME, organism-based; design: dose 1 mg/kg, route intravenous; settings: in vivo
[3] = biological target: Dihydroorotate dehydrogenase (quinone), mitochondrial (Rattus norvegicus, UniProt Q63707); assay: Inhibition of rat dihydroorotate dehydrogenase
Chain of Dihydroorotate dehydrogenase (quinone), mitochondrial (Rattus norvegicus, UniProt Q63707) (Q63707 whole entry): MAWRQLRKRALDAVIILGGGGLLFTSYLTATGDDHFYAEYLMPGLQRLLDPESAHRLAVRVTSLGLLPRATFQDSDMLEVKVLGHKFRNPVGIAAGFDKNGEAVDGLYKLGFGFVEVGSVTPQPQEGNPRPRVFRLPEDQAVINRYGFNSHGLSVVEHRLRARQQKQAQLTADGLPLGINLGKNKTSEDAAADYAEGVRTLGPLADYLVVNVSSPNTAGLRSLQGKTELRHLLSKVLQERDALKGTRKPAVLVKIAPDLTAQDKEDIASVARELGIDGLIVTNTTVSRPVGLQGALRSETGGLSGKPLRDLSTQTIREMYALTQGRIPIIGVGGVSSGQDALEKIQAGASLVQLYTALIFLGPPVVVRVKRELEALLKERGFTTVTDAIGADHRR

PBMC = assay: Antiproliferative activity against PHA-stimulated human PBMC assessed as inhibition of […] after 72 hrs by BrdU-ELISA assay; assay type: functional, cell-based
[4] = Metabolic stability in rat microsomes assessed as compound degradation at 5 uM after 30 mins; assay type: ADME, Microsome; settings: read-out: Drug metabolism
[5] = Metabolic stability in human microsomes assessed as compound degradation at 5 uM after 30 mins; assay type: ADME, Microsome; settings: read-out: Drug metabolism
Rattus norvegicus [6] = assay: Antiinflammatory activity in rat Freund's adjuvant induced-arthritis model assessed as inhibition of paw edema at 10 mg/kg qd administered 10 days post challenge for 10 consecutive days; assay type: functional; settings: 240 h
[7] = Half life in human plasma; assay type: ADME, organism-based
Rattus norvegicus [8] = assay: Antiinflammatory activity in rat Freund's adjuvant induced-arthritis model assessed as inhibition of paw edema administered 10 days post challenge once daily for 10 days; assay type: functional; settings: 240 h

Chain of Dihydroorotate dehydrogenase (quinone), mitochondrial (Homo sapiens, UniProt Q02127) (Q02127 whole entry): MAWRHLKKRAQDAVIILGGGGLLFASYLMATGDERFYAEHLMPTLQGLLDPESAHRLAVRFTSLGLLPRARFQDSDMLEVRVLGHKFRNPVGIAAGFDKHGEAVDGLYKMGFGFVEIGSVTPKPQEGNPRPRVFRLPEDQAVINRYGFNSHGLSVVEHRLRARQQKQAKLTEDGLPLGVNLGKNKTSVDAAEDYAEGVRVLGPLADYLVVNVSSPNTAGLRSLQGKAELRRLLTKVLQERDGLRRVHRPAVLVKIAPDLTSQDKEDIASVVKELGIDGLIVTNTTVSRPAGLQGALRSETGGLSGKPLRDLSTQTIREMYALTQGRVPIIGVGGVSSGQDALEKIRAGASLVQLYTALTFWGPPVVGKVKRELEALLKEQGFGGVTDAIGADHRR

| Structure (SMILES) | IC50 [1] [nM] | IC50 (PBMC) [nM] | further results |
| --- | --- | --- | --- |
| CC/C(O)=C(\C#N)C(=O)Nc1ccc(OS(=O)(=O)C(F)(F)F)cc1 | 150 | – | half-life [2]: 8 h |
| CC/C(O)=C(\C#N)C(=O)Nc1ccc(OS(=O)(=O)C(F)(F)F)c(C(=O)OC)c1 | 93 | – | half-life [2]: 2 h |
| CC/C(O)=C(\C#N)C(=O)Nc1ccc(-c2ccccc2)c(C(=O)OC)c1 | 73 | – | – |
| CC/C(O)=C(\C#N)C(=O)Nc1ccc(-c2ccccc2Cl)c(C(=O)OC)c1 | 52 | – | – |
| CC/C(O)=C(\C#N)C(=O)Nc1ccc(-c2cccnc2)c(C(=O)OC)c1 | 40 | – | – |
| CCOc1cccc(-c2ccc(NC(=O)/C(C#N)=C(\O)CC)cc2C(=O)OC)c1 | 59 | – | – |
| CC/C(O)=C(\C#N)C(=O)Nc1ccc(-c2ccc3c(c2)OCO3)c(C(=O)OC)c1 | 76 | 18500 | – |
| CC/C(O)=C(\C#N)C(=O)Nc1ccc(-c2cccc(OC)c2)c(C(=O)OC)c1 | 26 | – | – |
| CC/C(O)=C(\C#N)C(=O)Nc1ccc(-c2ccc3c(c2)OCCO3)c(C(=O)OC)c1 | 66 | – | – |
| CC/C(O)=C(\C#N)C(=O)Nc1ccc(-c2cccc(OC(F)F)c2)c(C(=O)OC)c1 | 34 | – | – |
| CC/C(O)=C(\C#N)C(=O)Nc1ccc(-c2cccc(OC3CCC3)c2)c(C(=O)OC)c1 | 31 | – | – |
| C/C(O)=C(\C#N)C(=O)Nc1ccc(C(F)(F)F)cc1 [TERIFLUNOMIDE] | – | 46000 | half-life [2]: 14.1 h; metabolised at 0.5 h, 5 µM [4]: 0%; metabolised at 0.5 h, 5 µM [5]: 3%; ED50 (Rattus norvegicus [8]): 2.88 mg/kg |

Now from value to compound, other results behind:

| IC50 [1] [nM] | Structure (SMILES) | IC50 (PBMC) [nM] | further results |
| --- | --- | --- | --- |
| 110 | CC/C(O)=C(\C#N)C(=O)Nc1ccc(-c2ccc(F)cc2)c(C(=O)OC)c1 | 2000 | half-life [2]: 0.9 h; IC50 [3]: 350 nM; metabolised at 0.5 h, 5 µM [4]: 19%; metabolised at 0.5 h, 5 µM [5]: 17%; inhibition in vivo at 10 mg/kg (Rattus norvegicus [6]): 49%; half-life [7]: 336 h |
| 31 | CC/C(O)=C(\C#N)C(=O)Nc1ccc(-c2cccc(Cl)c2)c(C(=O)OC)c1 | 34000 | – |
| 45 | CC/C(O)=C(\C#N)C(=O)Nc1ccc(-c2ccc(Cl)cc2)c(C(=O)OC)c1 | 13000 | – |
| 27 | CC/C(O)=C(\C#N)C(=O)Nc1ccc(-c2cccc(OC(F)(F)F)c2)c(C(=O)OC)c1 | 37000 | – |
| 198 | CC/C(O)=C(\C#N)C(=O)Nc1ccc(-c2cccc(F)c2)c(C(=O)OC)c1 | – | – |
| 31 | CC/C(O)=C(\C#N)C(=O)Nc1ccc(-c2ccc(F)cc2F)c(C(=O)OC)c1 | 6000 | – |
| 49 | CC/C(O)=C(\C#N)C(=O)Nc1ccc(-c2ccc(F)cc2C)c(C(=O)OC)c1 | – | – |
| 150 | CC/C(O)=C(\C#N)C(=O)Nc1ccc(-c2ccc(F)nc2)c(C(=O)OC)c1 | – | – |
| 97 | CC/C(O)=C(\C#N)C(=O)Nc1ccc(-c2ccc(F)c(F)c2)c(C(=O)OC)c1 | – | – |
| 137 | CC/C(O)=C(\C#N)C(=O)Nc1ccc(-c2cc(F)c(F)c(F)c2)c(C(=O)OC)c1 | 19000 | – |
| 66 | CC/C(O)=C(\C#N)C(=O)Nc1ccc(-c2ccc(F)cc2OC)c(C(=O)OC)c1 | – | – |
